This data set in a line: physchem. The note with it: octan-1-ol/water.

Results on 45 compounds are retold here after ChEMBL document CHEMBL3301361, “Experimental in vitro DMPK and physicochemical data on a set of publicly disclosed compounds”.

The structures appear in SMILES notation.

What is called logD is the decadic logarithm of the distribution of all forms, ionised or not, between an organic phase and buffer at a given pH. High values mean a more lipophilic compound, low ones a more hydrophilic compound.

In turn, `CNCC[C@@H](Oc1ccccc1C)c1ccccc1` [ATOMOXETINE] yielded a logD (pH 7.4, LogD7.4) of 1.2.
Same read-out and setting: in the case of `Cn1cnc([N+](=O)[O-])c1Sc1ncnc2nc[nH]c12` [AZATHIOPRINE] it was 0.19; in that of `CN1CCCC(n2nc(Cc3ccc(Cl)cc3)c3ccccc3c2=O)CC1` (stereo not given) [AZELASTINE], 2.46.
Same read-out and setting: in the case of `CCCN1CCN(c2ccc(C(=O)NC3(C(=O)NCC#N)CCCCC3)cc2)CC1` [BALICATIB] it was 1.33; in that of `NS(=O)(=O)c1cc2c(cc1C(F)(F)F)NC(Cc1ccccc1)NS2(=O)=O` (stereo not given) [BENDROFLUMETHIAZIDE], 1.78; in that of `CCOC(=O)c1ccc(N)cc1` [BENZOCAINE], 1.83.
Consider `CC(C)COCC(CN(Cc1ccccc1)c1ccccc1)N1CCCC1` (stereo not given) [BEPRIDIL], for which the logD (pH 7.4, LogD7.4) was determined as 3.66.
The same measure, in the same setting: under `COc1ccc(-c2coc3cc(OC)cc(OC)c3c2=O)cc1` [BIOCHANIN A, DIMETHYL ETHER] stands 3.05; under `COc1ccc(-c2coc3cc(O)cc(O)c3c2=O)cc1` [BIOCHANIN], 3.5.
On the same count and under the same terms, in the case of `OC(CCN1CCCCC1)(c1ccccc1)C1CC2C=CC1C2` (stereo not given) [BIPERIDEN] it was 2.49; in that of `C[C@H](Oc1ccc(S(C)(=O)=O)cc1C(=O)N1CCN(c2ncc(C(F)(F)F)cc2F)CC1)C(F)(F)F` [BITOPERTIN], 3.49.
In the case of `CC(C)(C)OC(=O)c1ncn2c1[C@@H]1CCCN1C(=O)c1c(Br)cccc1-2` [BRETAZENIL], the logD (pH 7.4) turned out to be 2.48.
For the compound `CCN(CC)CCNC(=O)c1cc(Br)c(N)cc1OC` [BROMOPRIDE], where the note is “pH 7.4, LogD7.4”, the logD was found to be 0.54.
Still for that read-out and setting: under `CCCCN(CCCC)CCCOC(=O)c1ccc(N)cc1` [BUTACAINE] stands 1.93.
In turn, `C=CCC1(CC(C)C)C(=O)NC(=O)NC1=O` [BUTALBITAL] returned a logD (pH 7.4) of 1.48.
Under “pH 7.4”, `CCCCC1(CC)C(=O)NC(=O)NC1=O` [BUTETHAL] showed a pH-dependent lipophilicity (logD) of 1.5.
Same read-out and setting: under `CC(N)Cc1c[nH]c2ccc(OCc3cccs3)cc12` (stereo not given) [BW-723C86] stands 0.48.
Turning to `CCCCCOC(=O)Nc1nc(=O)n([C@@H]2O[C@H](C)[C@@H](O)[C@H]2O)cc1F` [CAPECITABINE], the logD (pH 7.4, LogD7.4) stood at 0.67.
Turning to `O=C1CCCCCN1` [CAPROLACTAM], the logD (pH 7.4, LogD7.4) is -0.08.
Still for that read-out and setting: under `CCN(CC)CCOCCOC(=O)C1(c2ccccc2)CCCC1` [CARBETAPENTANE] stands 1.33; under `C[C@@](Cc1ccc(O)c(O)c1)(NN)C(=O)O` [CARBIDOPA ANHYDROUS], -0.7.
With `CCCC(C)(COC(N)=O)COC(=O)NC(C)C` (stereo not given) [CARISOPRODOL], the logD (pH 7.4) is 2.01.
Still for that read-out and setting: in the case of `Nc1nc2ccc(Cl)cc2c2nc(-c3ccco3)nn12` [CGS-15943] it was 3.98; in that of `O=C(O)CCCc1ccc(N(CCCl)CCCl)cc1` [CHLORAMBUCIL], 1.47.
For `O=c1ccoc2ccccc12` [CHROMONE], for the setting “pH 7.4, LogD7.4”, the logD was determined as 1.4.
The same measure, in the same setting: in the case of `O=c1cc(-c2ccccc2)oc2cc(O)cc(O)c12` [CHRYSIN] it was 3.83; in that of `O=C(c1ccc(OCCCc2cnc[nH]2)cc1)C1CC1` [CIPROXIFAN], 2.68; in that of `CCN(CC)CCCNCc1cc(Cl)c2cccnc2c1O` [CLAMOXYQUIN], 0.72.
`NC(=NCc1ccc(Cl)cc1)SCCCc1cnc[nH]1` [CLOBENPROPIT] registered a logD (pH 7.4) of 1.13.
Compound `COc1cc2c(c(OC)c1OC)-c1ccc(OC)c(=O)cc1[C@@H](NC(C)=O)CC2` [COLCHICINE] displayed a logD (pH 7.4) of 0.82.
For the setting “pH 7.4, LogD7.4”, `COc1ccccc1CN[C@H]1CCCN[C@H]1c1ccccc1` [CP-99994] returned a logD of 1.5.
The same measure, in the same setting: in the case of `CC1CC(OC(=O)C(O)c2ccccc2)CC(C)(C)C1` (stereo not given) [CYCLANDELATE] it was 2.31; in that of `NS(=O)(=O)c1cc2c(cc1Cl)NC(C1CC3C=CC1C3)NS2(=O)=O` (stereo not given) [CYCLOTHIAZIDE], 2.12; in that of `CN1CCC(=C2c3ccccc3C=Cc3ccccc32)CC1` [CYPROHEPTADINE], 3.06.
The same measure, in the same setting: under `N[C@H](Cc1c[nH]c2ccccc12)C(=O)O` [D-TRYPTOPHAN] stands -0.92.
On to `Cc1cccc([C@H](C)c2cnc[nH]2)c1C` [DEXMEDETOMIDINE], for which the logD (pH 7.4) worked out at 2.79.
With `NS(=O)(=O)c1cc(Cl)c(Cl)c(S(N)(=O)=O)c1` [DICHLORPHENAMIDE], under “pH 7.4, LogD7.4”, the logD stood at 0.92.
Still for that read-out and setting: in the case of `CCN(CC)CCOC(=O)C1(C2CCCCC2)CCCCC1` [DICYCLOMINE] it was 3.72; in that of `CN(C)c1ncnc2nc[nH]c12` [DIMETHYLADENINE], 0.95; in that of `NC(Cc1c[nH]c2ccccc12)C(=O)O` (stereo not drawn) [DL-TRYPTOPHAN], -1.17.
With `CC(=O)O[C@@]12CO[C@@H]1C[C@H](O)[C@@]1(C)C(=O)[C@H](O)C3=C(C)[C@@H](OC(=O)[C@H](O)[C@@H](NC(=O)OC(C)(C)C)c4ccccc4)C[C@@](O)([C@@H](OC(=O)c4ccccc4)[C@H]21)C3(C)C` [DOCETAXEL], the logD (pH 7.4, LogD7.4) came out at 3.4.
Same read-out and setting: under `CCCCC(CC)COC(=O)CC(C(=O)OCC(CC)CCCC)S(=O)(=O)O` (stereo not given) [DOCUSATE] stands 2.93; under `CN(C)CCOC(C)(c1ccccc1)c1ccccn1` (stereo not given) [DOXYLAMINE], -0.2.
The same measure, in the same setting: in the case of `Cn1c(=O)c2c(ncn2CC(O)CO)n(C)c1=O` (stereo not given) [DYPHYLLINE] it was -1.25; in that of `CCN(CC)CCOc1ccc(/C(=C(/Cl)c2ccccc2)c2ccccc2)cc1` [ENCLOMIPHENE], 4.09.
